Laboratory results taken from patent publication US10550142B2, “Quercetin-based compound” (AMOREPACIFIC CORPORATION, priority 2016, dated 2020).

Target: T1, β-amyloid (Aβ1-42) (Homo sapiens, UniProt P05067)
T1 construct: β-amyloid (Aβ1-42, AnaSpec Inc, USA) was obtained; purchased AnaSpec Inc, USA
Assay: Beta-amyloid aggregation inhibition, fluorescence analysis (Thioflavin T assay)
Type: biochemical
Conditions: compound 10 μM; for Increased RFU (amount of aggregated β-amyloid): Aβ1-42 0.1 mg/ml, 37° C., 150 minutes; for Increased RFU (% of Pos.Cont.): aggregated β-amyloid compared to the positive control (no compound) = 100; for decreased aggregation compared with the positive control: positive control taken as 100%
Experimental: The beta-amyloid aggregation inhibitory effect of quercetin 3-O-[3-O″-(E)-p-coumaroyl][β-D-glucopyranosyl-(1→3)-O-α-L-rhamnopyranosyl-(1→6)-O-β-D-glucopyranoside] and quercetin 3-O-[3-O″-(E)-p-coumaroyl][α-L-rhamnopyranosyl-(1→6)-O-β-D-glucopyranoside] was determined by fluorescence analysis (Thioflavin T assay). Specifically, β-amyloid (Aβ1-42, AnaSpec Inc, USA) was obtained and used at a concentration of 0.1 mg/ml. It was stored at −80° C. prior to use. Each of morin (20 μM), phenol red (20 μM), quercetin 3-O-[3-O″-(E)-p-coumaroyl][β-D-glucopyranosyl-(1→3)-O-α-L-rhamnopyranosyl-(1→6)-O-β-D-glucopyranoside] (1 mg/ml), and quercetin 3-O-[3-O″-(E)-p-coumaroyl][α-L-rhamnopyranosyl-(1→6)-O-β-D-glucopyranoside] (1 mg/ml) was diluted to these concentrations in DMSO. In order to determine the degree of inhibition of Aβ1-42 aggregation, each compound at the above concentration was diluted to 10 μM in 50 μL of 0.01 M sodium phosphate buffer solution. Then, 40 μL of 0.1 mg/ml Aβ1-42 was added thereto, followed by addition of 10 μL of 2 mM Thioflavin T. The fluorescence was then measured with a fluorescence spectrometer (RF-5300PC, SHIMADZU CORPORATION, Japan) at 37° C. and intervals of 5 minutes for 150 minutes. In the table above, “RFU” denotes relative fluorescence unit, and “increased RFU” indicates the amount of aggregated β-amyloid. “Increased RFU (% of Pos.Cont.)” indicates the percentage of aggregated β-amyloid compared to the positive control. “Novel substance 31” indicates quercetin 3-O-[3-O″-(E)-p-coumaroyl][β-D-glucopyranosyl-(1→3)-O-α-L-rhamnopyranosyl-(1→6)-O-β-D-glucopyranoside], and “novel substance 32” indicates quercetin 3-O-[3-O″-(E)-p-coumaroyl][α-L-rhamnopyranosyl-(1→6)-O-β-D-glucopyranoside].

T1 sequence (P05067 672-713 limits assumed): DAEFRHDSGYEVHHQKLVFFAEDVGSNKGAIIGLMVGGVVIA

Increased RFU (amount of aggregated β-amyloid) [RFU] | Increased RFU (% of Pos.Cont.) [%] | decreased aggregation compared with the positive control [%] | SMILES
12148 | 83.2 | 16.8 | CC1OC(OCC2OC(Oc3c(-c4ccc(O)c(O)c4)oc4cc(O)cc(O)c4c3=O)C(O)C(OC(=O)/C=C/c3ccc(O)cc3)C2O)C(O)C(O)C1O [Novel substance 32, quercetin 3-O-[3-O″-(E)-p-coumaroyl][α-L-rhamnopyranosyl-(1→6)-O-β-D-glucopyranoside]]
12955 | 88.8 | 11.2 | CC1OC(OCC2OC(Oc3c(-c4ccc(O)c(O)c4)oc4cc(O)cc(O)c4c3=O)C(O)C(OC(=O)/C=C/c3ccc(O)cc3)C2O)C(O)C(OC2OC(CO)C(O)C(O)C2O)C1O [Novel substance 31, quercetin 3-O-[3-O″-(E)-p-coumaroyl][β-D-glucopyranosyl-(1→3)-O-α-L-rhamnopyranosyl-(1→6)-O-β-D-glucopyranoside]]
